Reference: patent US11186575B2, “Treatment of helicobacter pylori infections” (Albert Einstein College of Medicine, Inc., priority 2012, dated 2021)
≈ marks a conversion by molar mass, not a printed value. Like-named read-outs stand apart in the source and are kept apart here.

Key:
H. pylori MTAN [1] = molecular target: T1, H. pylori MTAN (Helicobacter pylori, UniProt Q9ZMY2); assay: Ki determination: inhibition of recombinant HpMTAN, xanthine oxidase coupled assay, 5′-methylthioadenosine as substrate; format: biochemical
T1 construct: His6 (N); made in house; host or cells: E. coli BL21 (DE3)
T1 sequence (Q9ZMY2 1-230): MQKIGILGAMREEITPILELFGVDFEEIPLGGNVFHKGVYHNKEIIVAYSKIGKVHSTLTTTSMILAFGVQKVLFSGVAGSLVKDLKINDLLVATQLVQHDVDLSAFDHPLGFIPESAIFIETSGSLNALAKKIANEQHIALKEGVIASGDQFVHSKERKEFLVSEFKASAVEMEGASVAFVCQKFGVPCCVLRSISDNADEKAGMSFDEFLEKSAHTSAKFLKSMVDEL
Protocol: The purification procedure of HpMTAN was described previously^10. Briefly, BL21 (DE3) cells harboring a plasmid encoding HpMTAN with an N-terminal His6-tag were grown to an optical density of 0.7 measured at 595 nm and IPTG was introduced to a final concentration of 0.5 mM. After another 15 h at 22° C., cells were collected by centrifugation. The pellet was suspended and later disrupted by pressure cell and sonication. The soluble portion was applied to a Ni-NTA column and HpMTAN was eluted with an imidazole concentration gradient of 200 to 500 mM. The protein was desalted using a Superdex G15 gel-filtration column then equilibrated and concentrated in 10 mM Hepes, 30 mM KCl, pH 7.6. The purity was confirmed by SDS-PAGE.
Kinetics of HpMTAN were determined using a direct assay involving absorbance decrease at 274 nm continuously as a consequence of formation of free adenine from 5′-methylthioadenosine. The Ki and Ki* values of BuT-DADMe-ImmA (30) were determined using coupled assays, in which xanthine oxidase was used as the coupling enzyme and absorbance increase was followed at 292 nm as the product adenine is converted to 2,8-dihydroxyadenine. Both assays have been previously described
BuT-DADMe-ImmA (30) was previously characterized as a transition state analogue inhibitor of EcMTAN (FIG. 1C)^8. Here, inhibition assays were performed using BuT-DADMe-ImmA against recombinant HpMTAN with 5′-methylthioadenosine as substrate. Purified HpMTAN uses both 5′-methylthioadenosine and 6-amino-6-deoxyfutalosine as facile substrates. […] The low Kd value supports the proposal that BuT-DADMe-ImmA is a transition state analogue inhibitor for HpMTAN. […] The nitrogen of the hydroxypyrrolidine moiety has a pKa value of 9, and thus mimics the positive charge of a ribocation at the transition state. The methylene bridge extends the distance between the sugar and the purine base leaving group, as this distance is near 3 Å at the transition state. The 9-deazaadenine alters conjugation in the purine ring, causing an elevated pKa and protonation of N7, resembling the N7-protonated adenine leaving group at the transition state.

H. pylori [2] = assay: H. pylori growth on tryptic soy agar with 5% horse blood (MIC); format: cell-based, Helicobacter pylori; conditions: Helicobacter pylori, read-out: Inhibition of H. pylori growth MIC90
Protocol: (§1) H. pylori were grown for 72 hours under microaerophilic condition (5% O2, 10% CO2 and 85% N2) at 37° C. on tryptic soy agar with 5% horse blood. To determine the MIC values, the test substance was added to the gel solution right before pouring. To compare the zones of inhibition, specific antibiotics were added to the center of disc after spreading H. pylori, and then H. pylori was allowed to grow for 72 hours under microaerophilic condition at 37° C.
The effects of BuT-DADMe-ImmA (30) were tested on H. pylori growing on 5% horse blood agar. At 6 ng/ml, slight growth was detected and at 8 ng/ml, no growth was detected, therefore the MIC90 value for inhibition of H. pylori growth is <8 ng/ml (FIG. 3A).

H. pylori MTAN [3] = molecular target: T1, H. pylori MTAN; conditions: Table 3, cited from earlier work
H. pylori [4] = assay: Zone of inhibition (disc) on H. pylori; format: cell-based, Helicobacter pylori; conditions: equivalent amounts (10 ng or 20 ng per disc)
Protocol: FIG. 3A-3B: The effects of BuT-DADMe-ImmA (30) on H. pylori growth. A. The effects of increasing the concentration of BuT-DADMe-ImmA (ng/ml) on growth on blood agar. B. The inhibitory effects of BuT-DADMe-ImmA are compared with amoxicillin, metronidazole and tetracyclin in zone of inhibition studies. Drug concentrations were: 0 (top disc), 10 ng (middle disc) or 20 ng (bottom disc). Each specified antibiotic was applied to the disc in the same manner.
as §1
Commonly used antibiotics in H. pylori infections include amoxicillin, metronidazole and tetracycline. The anti-H. pylori effects of BuT-DADMe-ImmA (30) were compared to those antibiotics in common use. […] Thus, BuT-DADMe-ImmA is more efficient at inhibition of H. pylori growth than commonly used antibiotics.

[5] = Table 3, DADMe-Immucillin-A series, initial inhibition constant, read-out: Inhibition of H. pylori MTAN Ki
[6] = Table 3, equilibrium dissociation constant after slow onset, read-out: Inhibition of H. pylori MTAN Ki*
[7] = Table 3, agar plate, 72 hours, microaerophilic
[8] = Table 4, Immucillin-A series, read-out: Inhibition of H. pylori MTAN Ki
[9] = 72 h, Table 4, Immucillin-A series
[10] = Table 4, Immucillin-A series, read-out: Inhibition of H. pylori MTAN Ki*

Row | SMILES | Ki (H. pylori MTAN [1]; [5]) | Ki (H. pylori MTAN [1]; [6]) | MIC90 (H. pylori [2]; [7]) | further results
1 | Nc1ncnc2c(CN3CC(O)[C@@H](CSCCO)C3)c[nH]c12 (stereo partly drawn) [Compound 10, (4S)-1-((4-amino-5H-pyrrolo[3,2-d]pyrimidin-7-yl)methyl)-4-(((2-hydroxyethyl)thio)methyl)pyrrolidin-3-ol] | 0.43 ± 0.12 nM | 0.04 ± 0.01 nM | – | –
2 | Nc1ncnc2c(CN3CC(O)[C@@H](CSCCCCO)C3)c[nH]c12 (stereo partly drawn) [Compound 12, (4S)-1-((4-Amino-5H-pyrrolo[3,2-d]pyrimidin-7-yl)methyl)-4-(((4-hydroxybutyl)thio)methyl)pyrrolidin-3-ol] | 0.34 ± 0.07 nM | 0.11 ± 0.04 nM | 0.02 µg/mL (≈ 0.0569 µM) | –
3 | Nc1ncnc2c(CN3CC(O)[C@@H](CSCCOCCO)C3)c[nH]c12 (stereo partly drawn) [Compound 13, (4S)-1-((4-Amino-5H-pyrrolo[3,2-d]pyrimidin-7-yl)methyl)-4-(((2-(2-hydroxyethoxyl)ethyl)thio)methyl)pyrrolidin-3-ol] | 0.96 ± 0.16 nM | 0.015 ± 0.004 nM | 0.035 to 0.07 µg/mL (≈ 0.0952 to 0.19 µM) | –
4 | C#CCCCCSC[C@H]1CN(Cc2c[nH]c3c(N)ncnc23)C[C@@H]1O [Compound 14, (3R,4S)-1-({4-Amino-5H-pyrrolo[3,2-d]pyrimidin-7-yl}methyl)-4-[(hex-5-yn-1-ylthio)methyl]pyrrolidin-3-ol] | 0.5 ± 0.2 nM | 0.09 ± 0.02 nM | 0.004 to 0.008 µg/mL (≈ 0.0111 to 0.0223 µM) | –
5 | Nc1ncnc2c(CN3C[C@H](CSc4ccccn4)[C@@H](O)C3)c[nH]c12 [Compound 24, (3R,4S)-1-({4-Amino-5H-pyrrolo[3,2-d]pyrimidin-7-yl}methyl)-4-[(pyridin-2-ylthio)methyl]pyrrolidin-3-ol] | 0.32 ± 0.7 nM | 0.041 ± 0.002 nM | 0.04 µg/mL (≈ 0.112 µM) | –
6 | CSCC1CN(Cc2c[nH]c3c(N)ncnc23)CC1O (stereo not shown) [Compound 31] | – | – | 0.006 to 0.012 µg/mL (≈ 0.0205 to 0.0409 µM) | Ki (H. pylori MTAN [3]; read-out: Inhibition of H. pylori MTAN Ki*, value from Reference 10): 0.57 nM; Ki (H. pylori MTAN [3]; read-out: Inhibition of H. pylori MTAN Ki, value marked (Reference 10)): 1.2 nM
7 | Nc1ncnc2c(CN3C[C@H](CSC4CCCC4)[C@@H](O)C3)c[nH]c12 [Compound 32] | 0.78 ± 0.15 nM | 0.17 ± 0.01 nM | 0.007 to 0.014 µg/mL (≈ 0.0201 to 0.0403 µM) | –
8 | CCCC[C@H]1CN(Cc2c[nH]c3c(N)ncnc23)C[C@@H]1O [Compound 33] | 0.058 ± 0.014 nM | 0.007 ± 0.002 nM | 0.01 µg/mL (≈ 0.0346 µM) | –
9 | CCSC[C@H]1CN(Cc2c[nH]c3c(N)ncnc23)C[C@@H]1O [Compound 34] | 0.12 ± 0.03 nM | 0.52 ± 0.04 nM | 0.016 µg/mL (≈ 0.052 µM) | –
10 | Nc1ncnc2c(CN3C[C@H](CSCc4ccccc4)[C@@H](O)C3)c[nH]c12 [Compound 38] | 203 ± 28 nM | 0.31 ± 0.08 nM | 0.04 µg/mL (≈ 0.108 µM) | –
11 | Nc1ncnc2c(CN3CC(O)C(CSc4ccc(Cl)cc4)C3)c[nH]c12 (stereo not shown) [Compound 41] | – | – | – | Ki (H. pylori MTAN [3]; value from Reference 10, read-out: Inhibition of H. pylori MTAN Ki*): 0.57 nM; Ki (H. pylori MTAN [3]; value marked (Reference 10), read-out: Inhibition of H. pylori MTAN Ki): 40 nM
12 | CCCSC[C@H]1NC(c2c[nH]c3c(N)ncnc23)[C@H](O)[C@@H]1O (stereo partly shown) [Compound 42] | – | – | – | Ki (H. pylori MTAN [1]; [8]): 0.6 ± 0.1 nM; MIC90 (H. pylori [2]; [9]): 0.016 µg/mL (≈ 0.0495 µM)
13 | CCCCSC[C@H]1NC(c2c[nH]c3c(N)ncnc23)[C@H](O)[C@@H]1O (stereo partly shown) [Compound 43] | – | – | – | Ki (H. pylori MTAN [1]; [8]): 0.51 ± 0.07 nM; Ki (H. pylori MTAN [1]; [10]): 0.05 ± 0.01 nM; MIC90 (H. pylori [2]; [9]): 0.02 µg/mL (≈ 0.0593 µM)
14 | CSC[C@H]1NC(c2c[nH]c3c(N)ncnc23)[C@H](O)[C@@H]1O (stereo partly shown) [Compound 44] | – | – | – | Ki (H. pylori MTAN [1]; [8]): 0.98 ± 0.06 nM; Ki (H. pylori MTAN [1]; [10]): 0.24 ± 0.03 nM; MIC90 (H. pylori [2]; [9]): 0.08 µg/mL (≈ 0.271 µM)
15 | CC1(C)S[C@@H]2[C@H](NC(=O)[C@H](N)c3ccc(O)cc3)C(=O)N2[C@H]1C(=O)O [amoxicillin, reference compound] | – | – | – | zones of inhibition, comparison of antibiotics (H. pylori [4]): smaller zone of growth inhibition than BuT-DADMe-ImmA

Further lines, with some results ahead:

Row | Ki (H. pylori MTAN [1]; [5]) | Ki (H. pylori MTAN [1]; [6]) | MIC90 (H. pylori [2]; [7]) | SMILES | further results
16 | 0.89 ± 0.13 nM | 0.1 ± 0.01 nM | 0.04 µg/mL (≈ 0.119 µM) | Nc1ncnc2c(CN3CC(O)[C@@H](CSCCCO)C3)c[nH]c12 (stereo partly drawn) [Compound 11, (4S)-1-((4-Amino-5H-pyrrolo[3,2-d]pyrimidin-7-yl)methyl)-4-(((3-hydroxypropyl)thio)methyl)pyrrolidin-3-ol] | –
17 | 0.26 ± 0.03 nM | 0.05 ± 0.01 nM | 0.08 µg/mL (≈ 0.237 µM) | Nc1ncnc2c(CN3C[C@H](CCSCCO)[C@@H](O)C3)c[nH]c12 [Compound 16, (3R,4S)-1-({4-Amino-5H-pyrrolo[3,2-d]pyrimidin-7-yl}methyl)-4-{2-[(2-hydroxyethyl)thio]ethyl}pyrrolidin-3-ol] | –
18 | 0.28 ± 0.03 nM | 0.05 ± 0.01 nM | 0.08 µg/mL (≈ 0.21 µM) | Nc1ncnc2c(CN3C[C@H](CCSCCOCCO)[C@@H](O)C3)c[nH]c12 [Compound 17, (3R,4S)-1-({4-Amino-5H-pyrrolo[3,2-d]pyrimidin-7-yl}methyl)-4-(2-{[2-(2-hydroxyethoxy)ethyl]thio}ethyl)pyrrolidin-3-ol] | –
19 | 0.21 ± 0.03 nM | 0.005 ± 0.002 nM | 0.004 to 0.008 µg/mL (≈ 0.011 to 0.022 µM) | CCCCCCSC[C@H]1CN(Cc2c[nH]c3c(N)ncnc23)C[C@@H]1O [Compound 18, (3R,4S)-1-({4-Amino-5H-pyrrolo[3,2-d]pyrimidin-7-yl}methyl)-4-[(hexylthio)methyl]pyrrolidin-3-ol] | –
20 | 0.7 ± 0.1 nM | 0.14 ± 0.01 nM | 0.04 µg/mL (≈ 0.106 µM) | CCCCCCSCC[C@H]1CN(Cc2c[nH]c3c(N)ncnc23)C[C@@H]1O [Compound 19, (3R,4S)-1-({4-Amino-5H-pyrrolo[3,2-d]pyrimidin-7-yl}methyl)-4-[2-(hexylthio)ethyl]pyrrolidin-3-ol] | –
21 | 0.043 ± 0.001 nM | 0.006 nM | 0.008 µg/mL (≈ 0.0224 µM) | Nc1ncnc2c(CN3C[C@H](CSc4cnccn4)[C@@H](O)C3)c[nH]c12 [Compound 27, (3R,4S)-1-({4-Amino-5H-pyrrolo[3,2-d]pyrimidin-7-yl}methyl)-4-[(pyrazin-2-ylthio)methyl]pyrrolidin-3-ol] | –
22 | 0.24 ± 0.07 nM | 0.016 ± 0.005 nM | 0.02 µg/mL (≈ 0.0552 µM) | Nc1ncnc2c(CN3C[C@H](CSc4nccs4)[C@@H](O)C3)c[nH]c12 [Compound 29] | –
23 | 0.053 ± 0.007 nM | – | 0.016 µg/mL (≈ 0.0581 µM) | CCC[C@H]1CN(Cc2c[nH]c3c(N)ncnc23)C[C@@H]1O [Compound 35] | –
24 | 0.56 ± 0.27 nM | 0.045 ± 0.004 nM | 0.018 to 0.035 µg/mL (≈ 0.0479 to 0.0932 µM) | Nc1ncnc2c(CN3C[C@H](CSCC4CCCCC4)[C@@H](O)C3)c[nH]c12 [Compound 36] | –
25 | 0.4 ± 0.05 nM | 0.027 ± 0.002 nM | 0.035 to 0.07 µg/mL (≈ 0.0932 to 0.186 µM) | Nc1ncnc2c(CN3C[C@H](CSC4CCCCCC4)[C@@H](O)C3)c[nH]c12 [Compound 37] | –
26 | 0.27 ± 0.04 nM | 0.04 ± 0.01 nM | – | Nc1ncnc2c(CN3C[C@H](CSC4CCC4)[C@@H](O)C3)c[nH]c12 [Compound 40] | –
27 | 0.28 ± 0.02 nM | – | > 0.1 µg/mL | Nc1ncnc2c(CN3C[C@H](CSc4n[nH]c(-c5ccncc5)n4)[C@@H](O)C3)c[nH]c12 [Compound 56, (3R,4S)-1-({4-Amino-5H-pyrrolo[3,2-d]pyrimidin-7-yl}methyl)-4-({[5-(pyridin-4-yl)-1H-1,2,4-triazol-3-yl]thio}methyl)pyrrolidin-3-ol] | –
